pIC50: −log10 of the molar value.
Columns and labels:
CDK2/CycE = target: T1, CDK2/CycE (Homo sapiens, UniProt P24941); assay: CDK2/CycE kinase assay; type: biochemical; settings: recombinant CDK2/CycE, histone IIIS substrate, 0.5 μm ATP
T1 construct: GST; purchased Dr. Dieter Marmé, Klinik für Tumorbiologie, Freiburg (external academic supplier); host or cells: baculovirus-infected Sf9 insect cells
Experimental: Recombinant CDK2- and CycE-GST-fusion proteins, purified from baculovirus-infected insect cells (Sf9), were obtained by Dr. Dieter Marmé, Klinik für Tumorbiologie [Clinic for Tumor Biology], Freiburg. Histone IIIS, which was used as a kinase substrate, was purchased by the Sigma Company.
CDK2/CycE (50 ng/measuring point) was incubated for 15 minutes at 22° C. in the presence of various concentrations of test substances (0 μm, as well as within the range of 0.01-100 μm) in assay buffer [50 mmol of tris/HCl pH 8.0, 10 mmol of MgCl2, 0.1 mmol of Na ortho-vanadate, 1.0 mmol of dithiothreitol, 0.5 μm of adenosine triphosphate (ATP), 10 μg/measuring point of histone IIIS, 0.2 μCi/measuring point of ^33P-gamma ATP, 0.05% NP40, 12.5% dimethyl sulfoxide]. The reaction was stopped by adding EDTA solution (250 mmol, pH 8.0, 14 μl/measuring point).
From each reaction batch, 10 μl was applied to P30 filter strips (Wallac Company), and non-incorporated ^33P-ATP was removed by subjecting the filter strips to three washing cycles for 10 minutes each in 0.5% phosphoric acid. After the filter strips were dried for one hour at 70° C., the filter strips were covered with scintillator strips (MeltiLex™ A, Wallac Company) and baked for one hour at 90° C. The amount of incorporated ^33p (substrate phosphorylation) was determined by scintillation measurement in a gamma-radiation measuring device (Wallac).

MCF-7 = assay: Proliferation assay, MCF-7; type: cell-based, human; settings: MCF7, 96 h, 4 days incubation, crystal violet
Experimental: (§1) Cultivated human tumor cells (as indicated) were flattened out at a density of 5000 cells/measuring point in a 96-well multititer plate in 200 μl of the corresponding growth medium. After 24 hours, the cells of one plate (zero-point plate) were colored with crystal violet (see below), while the medium of the other plates was replaced by fresh culture medium (200 μl), to which the test substances were added in various concentrations (0 μm, as well as in the range of 0.01-30 μm; the final concentration of the solvent dimethyl sulfoxide was 0.5%. The cells were incubated for 4 days in the presence of test substances. The cell proliferation was determined by coloring the cells with crystal violet: the cells were fixed by adding 20 μl/measuring point of a 11% glutaric aldehyde solution for 15 minutes at room temperature. After three washing cycles of the fixed cells with water, the plates were dried at room temperature. The cells were colored by adding 100 μl/measuring point of a 0.1% crystal violet solution (pH was set at 3 by adding acetic acid). After three washing cycles of the colored cells with water, the plates were dried at room temperature. The dye was dissolved by adding 100 μl/measuring point of a 10% acetic acid solution. The extinction was determined by photometry at a wavelength of 595 nm. The change of cell growth, in percent, was calculated by standardization of the measured values to the extinction values of the zero-point plate (=0%) and the extinction of the untreated (0 μm) cells (=100%).

H460 = assay: Proliferation assay, H460; type: cell-based; settings: Homo sapiens, NCI-H460, 96 h; comparison table; 4 days incubation, crystal violet
Experimental: as §1, with “After three washing cycles of the colored cells with water, the plates were dried at room temperature. The dye was dissolved by adding 100 μl/measuring point of a 10% acetic acid solution.” left out

HCT116 = assay: Proliferation assay, HCT116; type: cell-based; settings: Homo sapiens, HCT-116, 96 h; comparison table; 4 days incubation, crystal violet
Experimental: as §1, with “After three washing cycles of the colored cells with water, the plates were dried at room temperature. The dye was dissolved by adding 100 μl/measuring point of a 10% acetic acid solution.” left out

DU145 = assay: Proliferation assay, DU145; type: cell-based; settings: Homo sapiens, DU-145, 96 h; comparison table; 4 days incubation, crystal violet
Experimental: as §1, with “After three washing cycles of the colored cells with water, the plates were dried at room temperature. The dye was dissolved by adding 100 μl/measuring point of a 10% acetic acid solution.” left out

| Structure (SMILES) | pIC50 (CDK2/CycE) | pIC50 (MCF-7; human tumor cells) | pIC50 (CDK2/CycE; comparison table) | pIC50 (MCF-7; Homo sapiens, comparison table) | pIC50 (H460) | pIC50 (HCT116) | pIC50 (DU145) | melting point [°C] |
| --- | --- | --- | --- | --- | --- | --- | --- | --- |
| CSc1ccc2c(c1)/C(=C1/Nc3ccc(OCc4ccccc4)cc3C1=O)C(=O)N2 [Example 5.1] | 5.30 | – | – | – | – | – | – | – |
| C[S+]([O-])c1ccc2c(c1)/C(=C1/Nc3ccccc3C1=O)C(=O)N2 (stereo not drawn) [Example 2.0, 5-Methylsulfinyl-indirubin] | – | – | 7.10 | 5.82 | 5.40 | 5.60 | 5.22 | 284 |
| CSc1ccc2c(c1)/C(=C1/Nc3ccccc3/C1=N\O)C(=O)N2 [Example 4.0, 5-Methylsulfanyl-3′,-hydroyimino-indirubin] | – | – | 7.70 | 6.15 | 6.00 | 6.22 | 6.00 | 156 |

Next, values leading:

| pIC50 (CDK2/CycE) | pIC50 (MCF-7; human tumor cells) | pIC50 (CDK2/CycE; comparison table) | pIC50 (MCF-7; Homo sapiens, comparison table) | pIC50 (H460) | pIC50 (HCT116) | pIC50 (DU145) | melting point [°C] | Structure (SMILES) |
| --- | --- | --- | --- | --- | --- | --- | --- | --- |
| 6.96 | 5.30 | – | – | – | – | – | – | CSc1ccc2c(c1)/C(=C1/Nc3ccc(NC(C)=O)cc3C1=O)C(=O)N2 [Example 5.0, 5-Methysulfanyl-5′-N-acetylindirubin] |
| – | – | 6.52 | 6.30 | – | – | – | > 210 | CSc1ccc2c(c1)/C(=C1/Nc3ccccc3C1=O)C(=O)N2 [Example 1.0, 5-Methylsulfanyl-indirubin] |
